Like-named read-outs stand apart in the source and are kept apart here.
Tests used:
[1] = biological target: T1, human Cdc7/human ASK complex protein (Homo sapiens, UniProt O00311); assay: Cdc7/ASK enzymatic assay; type: biochemical
T1 construct: purchased Carna Biosciences, Inc
Procedure: Measurement of Cdc7 kinase activity was carried out using MSA assay kit (QuickScout™ Screening Assist Kit, Carna Biosciences, Inc.). Assay buffer (20 mM HEPES, 0.01% Triton X-100™, 2 mM dithiothreitol, pH 7.5) was used to prepare a substrate mixture solution comprising 4 μM of kinase-reaction substrate (FITC-labeled MCM2 peptide), 40 mM MgCl2, and 4 times concentrations of final targeted ATP (5, 100, and 1,000 μM). The enzyme supplied in the kit (human Cdc7/human ASK complex protein) was diluted into the assay buffer to prepare a 7 nM solution (enzyme solution). The compound stock solution was prepared by diluting a 10 mM DMSO solution into the assay buffer (final 4% DMSO). The kinase reaction was performed by mixing of 5 μL of the compound solution, 5 μL of the substrate mixture solution, and 10 μL of the enzyme solution in a 384-well plate. For the pre-incubation assay, the compound solution and the enzyme solution were pre-mixed and incubated at ambient temperature for 30 min before adding into the substrate mixture solution to start enzymatic reaction. After the reaction at 25° C. for 5 hours, 60 μL of the termination buffer (supplied in the kit) was added to stop the reaction. The phosphorylation of substrate was measured using a LabChip EZ Reader II system (Caliper Life Sciences). The percent inhibition (%) by a tested compound was calculated according to the following formula:
Percent inhibition (%)=(1−(C−A)/(B−A))×100
A represents P/(P+S) for a blank well, B represents P/(P+S) for a solvent well, and C represents P/(P+S) for a compound-added well. S: the peak heights of the separated substrate, P: phosphorylated substrate.
The IC50 value of tested compound was calculated by regression analysis of the percent inhibition values versus the (logarithmic) concentration of the tested compound.

[2] = biological target: DYRK1B (Homo sapiens, UniProt Q9Y463); assay: Kinase selectivity IC50, DYRK1B; type: biochemical
Procedure: (§1) To investigate the representative kinase selectivity of these compounds at physiological ATP levels, compound 13 was screened over a panel of 121 kinases in the presence of 1 mM ATP with preincubation method. […] IC50 values of hit kinases were determined to confirm the selectivity of compound 13.

[3] = biological target: p70S6K (Homo sapiens, UniProt P23443); assay: Kinase selectivity IC50, p70S6K; type: biochemical
Procedure: as §1

[4] = In vitro metabolic stability, mouse liver microsomes; type: in vitro ADME
Procedure: (§2) NADPH regeneration system (13 mM NADP, 33 mM Glucose-6-phospate, 33 mM MgCl2, and 4 U/mL of Glucose-6-phosphate dehydrogenase) and liver microsomes (1 mg/mL of HLM (BD Gentest, lot 18888) or MLM (BD Gentest, lot 31197)) in 0.1 M phosphate buffer (pH 7.4) were pre-incubated separately at 37° C. for 20 min before mixing with 1:4 ratio. 50 μL of the mixed solution was added to 50 μL of the test compound (2 μM) to initiate the reaction at 37° C. (final conc. 1 μM test compound, 0.4 mg/mL liver microsomes, and 1.3 mM NADPH). After 30 min, the reactions were stopped by adding 300 μL of cold acetonitrile. For 0 min samples, ice-cold acetonitrile (with system suitability standard) was treated before mixing the test compound and microsomes. The sample were vortexed well and then centrifuged at 3500 rpm at 15° C. for 20 min. 110 μL of supernatant was mixed with 110 μL of water and quantitated by LC-MS/MS workstation (Shimazu Corp.).

[5] = biological target: GSK3β (Homo sapiens, UniProt P49841); assay: Kinase selectivity IC50, GSK3β; type: biochemical
Procedure: as §1

[6] = system: HEL299; assay: Anti-proliferation activity in HEL299; type: cell-based; conditions: HEL 299; HEL299, derived from a human embryo lung tissue
[7] = biological target: CLK1 (Homo sapiens, UniProt P49759); assay: Kinase selectivity IC50, CLK1; type: biochemical
Procedure: as §1

[8] = system: Colo-205 cells; assay: Cell cycle analysis (flow cytometry); type: cell-based, human; conditions: 48 hours, 0.33 and 1 μM
Procedure: FIGS. 3A and 3B illustrate the effects of Cdc7 inhibition by compound 13 in Colo-205 cells. a) Western blot analysis of extracts prepared from Colo-205 cells at 48 h after treatment with DMSO control (0 μM) or compound 13 at indicated concentrations. b) […] analysis of Colo-205 cells treated for 48 h with DMSO control (0 μM) and the indicated concentration of compound 13. DNA content was measured by FACS after propidium iodide staining.
Colo-205 cells (5×10^5) were seeded in six-well plates and treated with different concentrations of a test compound. After 48 h, the cells were harvested and suspended in 0.5 mL of D-PBS. The cells were then fixed by adding 1 mL of ice-cold ethanol, and the samples were kept at −30° C. The cells were resuspended in 200 μL PI solution (20 μg/mL propydium iodide and 100 μg/mL RNaseA of D-PBS), and incubated in the dark for 1 h at room temperature. Cell cycle analyses were performed using FACS Calibur flow cytometer (BD Biosciences).

[9] = biological target: Erk1 (Homo sapiens, UniProt P27361); assay: Kinase selectivity IC50, Erk1; type: biochemical
Procedure: as §1

[10] = Half-life after intravenous administration in mice; conditions: mouse, in vivo
[11] = biological target: Erk2 (Homo sapiens, UniProt P28482); assay: Kinase selectivity IC50, Erk2; type: biochemical
Procedure: as §1

[12] = system: Colo-205 cells; assay: Anti-proliferation activity in Colo-205 cells; type: cell-based; conditions: Homo sapiens, read-out: reduction of cell proliferation IC50
[13] = In vitro metabolic stability, human liver microsomes; type: in vitro ADME
Procedure: as §2

[14] = 1 mM ATP with preincubation, mean of duplicated assays

CCOC(=O)C1=C(Nc2ccccc2Cl)OC(=Cc2c[nH]c3ncccc23)C1=O [Compound 13, Ethyl 5-((1H-pyrrolo[2,3-b]pyridin-3-yl)methylene)-2-((2-chlorophenyl)amino)-4-oxo-4,5-dihydrofuran-3-carboxylate]
IC50 ([1]; 5 μM ATP, mean of duplicated assays, read-out: Cdc7 IC50): 2.4 nM
pre-incubation effect on Cdc7 inhibition ([1]; 30 min pre-incubation with Cdc7, various ATP concentrations up to 1 mM): inhibitory potencies were sustained even in the presence of 1 mM ATP
Fold selectivity, Cdc7 ([1]; IC50 for each kinase versus Cdc7): 1.0 fold
IC50 ([1]; in the presence of 1 mM ATP, without pre-incubation, read-out: Cdc7 IC50): 191 nM
IC50 ([1]; kinase selectivity table, 1 mM ATP with preincubation, mean of duplicated assays, read-out: IC50 (nM), Cdc7): 0.6 nM
ATP competition assay: effect of ATP concentration on inhibitory potency ([1]; various ATP concentrations, without pre-incubation): ATP-dependent proportional decreases in inhibitory potencies
IC50 [2, 14]: 53 nM
Fold selectivity, DYRK1B ([2]; IC50 versus Cdc7): 88 fold
IC50 [3, 14]: 399 nM
Fold selectivity, p70S6K ([3]; IC50 versus Cdc7): 665 fold
MLM % (remaining % of parent compound) ([4]; 30 min treatment of mouse liver microsomes): 58%
metabolic stability in mice (in words) ([4]; mouse): improved metabolic stabilities
IC50 [5, 14]: 51 nM
Fold selectivity, GSK3β ([5]; IC50 versus Cdc7): 85 fold
IC50 [6]: 1200 nM
IC50 [7, 14]: 5 nM
Fold selectivity, CLK1 ([7]; IC50 versus Cdc7): 8.3 fold
G1 phase peak [8]: Marked decreases
sub-G1 population [8]: significant increase
IC50 [9, 14]: 278 nM
Fold selectivity, Erk1 ([9]; IC50 versus Cdc7): 463 fold
half-life [10]: 22.8 min
IC50 [11, 14]: 61 nM
Fold selectivity, Erk2 ([11]; IC50 versus Cdc7): 102 fold
IC50 [12]: 170 nM
HLM % (remaining % of parent compound) ([13]; 30 min treatment of human liver microsomes): 67%
metabolic stability in human liver microsome (in words) ([13]; human): improved metabolic stabilities
